According to PubChem BioAssay (NCI):
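Protocol summary: plate cells (96-well), add compound at 5 concentrations, incubate 48 h, interpolate endpoints linearly. Definition used: TGI = concentration required for complete inhibition of growth.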

Tests used:
Assay in all cases: inhibition of tumour cell growth, NCI panel, 48 h
[1] = system: HS 578T breast
[2] = system: NCI-H460 lung
[3] = system: KM12 colon
[4] = system: SNB-19 CNS
[5] = system: RPMI-8226 leukemia
[6] = system: SK-MEL-28 melanoma
[7] = system: EKVX NSCLC
[8] = system: TK-10 renal
[9] = system: NCI-H23 lung
[10] = system: SF-268 CNS
[11] = system: DU-145 prostate
[12] = system: SNB-75 CNS
[13] = system: HL-60(TB) leukemia
[14] = system: CCRF-CEM leukemia
[15] = system: SF-295 CNS
[16] = system: U251 CNS
[17] = system: SW-620 colon
[18] = system: OVCAR-5 ovarian
[19] = system: NCI/ADR-RES ovarian

Row | Compound | TGI [1] | TGI [2] | TGI [3] | TGI [4] | TGI [5] | TGI [6] | TGI [7] | TGI [8] | TGI [9] | TGI [10] | TGI [11] | TGI [12] | TGI [13] | TGI [14] | TGI [15] | TGI [16] | TGI [17] | TGI [18] | TGI [19]
1 | CCOC(=O)CC(=O)C(=O)NNC1=NCCCN1 | > 100 µM | > 100 µM | > 100 µM | > 100 µM | > 100 µM | > 100 µM | > 100 µM | > 100 µM | > 100 µM | > 100 µM | > 100 µM | > 100 µM | > 100 µM | > 100 µM | > 100 µM | > 100 µM | > 100 µM | > 100 µM | 
2 | Cc1ccc(S(=O)(=O)OC2=C/C(=N\c3onc(C)c3C)c3ccccc3C2=O)cc1 | > 100 µM | > 100 µM | 43 µM | 64.8 µM | 53.8 µM | > 100 µM | > 100 µM | 92.7 µM | 73.8 µM | 77.5 µM | > 100 µM | > 100 µM | > 100 µM |  | > 100 µM | 21.1 µM | 80.1 µM | 42.1 µM | 77.1 µM
3 | CSC(=NCCCCN=C(NS(=O)(=O)c1ccc(Cl)cc1)SC)NS(=O)(=O)c1ccc(Cl)cc1 |  | > 100 µM |  | > 100 µM | > 100 µM | > 100 µM | > 100 µM | > 100 µM |  | > 100 µM | > 100 µM |  | > 100 µM | > 100 µM | > 100 µM | > 100 µM | > 100 µM | > 100 µM | > 100 µM
4 | CCCCCCCCCCCCn1c(=O)cc(NCCCC)c2cc3c(NCCCC)cc(=O)n(CCCCCCCCCCCC)c3nc21 |  | > 100 µM | > 100 µM | > 100 µM | > 100 µM | > 100 µM |  | > 100 µM | > 100 µM | > 100 µM | > 100 µM | > 100 µM |  |  | > 100 µM | > 100 µM |  |  | > 100 µM
5 | COc1[nH]c(C(Cl)(Cl)Cl)c(Cl)c(=O)c1Cl |  | > 100 µM | > 100 µM | > 100 µM | > 100 µM | > 100 µM | > 100 µM | > 100 µM | > 100 µM |  | > 100 µM |  | > 100 µM | > 100 µM | > 100 µM | > 100 µM | > 100 µM | > 100 µM | > 100 µM
6 | COC(=O)N/N=C(/CCN1CCCC1)CC(c1ccccc1)c1c(O)c2ccccc2oc1=O (stereo not drawn) |  | > 100 µM | > 100 µM | > 100 µM | > 100 µM | > 100 µM | > 100 µM | > 100 µM | > 100 µM | > 100 µM |  | > 100 µM | > 100 µM | > 100 µM | > 100 µM | > 100 µM | > 100 µM | > 100 µM | 
7 | O=C(Cn1cc(-c2ccccc2)nn1)NC1CCCC1 |  | > 100 µM | > 100 µM | > 100 µM | > 100 µM | > 100 µM | > 100 µM | > 100 µM | > 100 µM | > 100 µM | > 100 µM | > 100 µM | > 100 µM | > 100 µM | > 100 µM | > 100 µM | > 100 µM | > 100 µM | > 100 µM
8 | O=C(O)C(Cc1c[nH]c2ccccc12)N=Cc1nc(-c2ccccc2)oc1O (stereo not drawn) |  | > 100 µM |  | > 100 µM | > 100 µM | > 100 µM | > 100 µM | > 100 µM | > 100 µM | > 100 µM |  | > 100 µM | > 100 µM | > 100 µM | > 100 µM | > 100 µM | > 100 µM | > 100 µM | 
9 | COc1ccc(CNC2=C(NC(C)=O)C(=O)c3ccccc3C2=O)cc1 |  | > 50 µM | > 50 µM | > 50 µM |  | > 50 µM | 47.3 µM | 18.1 µM | 14.7 µM | > 50 µM |  | 49.5 µM | 7.45 µM | 24.7 µM | > 50 µM | 47.5 µM | 14.9 µM |  | 
10 | COC(=O)CCC(NC(=O)C(C)NC(=O)COC1C(O)C(OC(=O)CCNc2c3ccccc3nc3cccc([N+](=O)[O-])c23)OC(OCc2ccccc2)C1NC(C)=O)C(N)=O (stereo not drawn) | > 10 µM | > 10 µM | > 10 µM | > 10 µM |  |  | > 10 µM | > 10 µM | > 10 µM | > 10 µM | 7.06 µM | > 10 µM |  | > 10 µM | > 10 µM | > 10 µM | 4.44 µM | > 10 µM | 
11 | Cn1c(=O)c2c(no[n+]2[O-])n(C)c1=O | 64.9 µM | > 100 µM | > 100 µM | 64.8 µM | > 100 µM |  | 67.9 µM | 60.7 µM | 47.9 µM | 55.7 µM |  | 99.2 µM |  | > 100 µM | > 100 µM | 49.4 µM | 59.9 µM | > 100 µM | 46 µM
12 | CC(=O)OCCCCn1cnc2nc(Nc3ccccc3)nc(Cl)c21 | > 100 µM | > 100 µM | > 100 µM | > 100 µM | > 100 µM | > 100 µM | > 100 µM | > 100 µM |  | > 100 µM |  | > 100 µM | > 100 µM | > 100 µM | > 100 µM | > 100 µM | > 100 µM |  | > 100 µM
13 | NCC#CCNCCCN1CC1 | > 100 µM | > 100 µM | > 100 µM | > 100 µM | > 100 µM | > 100 µM | > 100 µM | > 100 µM | > 100 µM | > 100 µM | > 100 µM |  | > 100 µM |  | > 100 µM | > 100 µM | > 100 µM | > 100 µM | > 100 µM
14 | CC(C)(C)[Si](C)(C)OCCCCC1CC2(S(=O)(=O)C3=CC=C=C=C3)ON1CC2S(=O)(=O)c1ccccc1 (stereo not drawn) | > 100 µM | > 100 µM | > 100 µM | > 100 µM | > 100 µM | > 100 µM | > 100 µM | > 100 µM | > 100 µM | > 100 µM | > 100 µM | > 100 µM |  |  |  | > 100 µM | > 100 µM | > 100 µM | > 100 µM
